pEC50: −log10 of the molar value. Like-named read-outs stand apart in the source and are kept apart here. Numbered stars: 1 amine (or outer) side, 2 acyl side, 3 side chain; on linkers, the order of the positions; unused ones are H or OH. Bridge positions count the residues as written; N and C are the ends. Square brackets hold non-standard residues; d marks the D form. Peptide text beside a SMILES is read from it. * marks the point of attachment. Pro(4R-Bn) = O=C(O)[C@@H]1C[C@@H](Cc2ccccc2)CN1; C20 diacid = O=C(O)CCCCCCCCCCCCCCCCCCC(=O)*; γGlu = O=C(O)[C@H](CCC(=O)[*:2])N[*:1]; NMeI = CC[C@H](C)[C@H](NC)C(=O)O; Sar = CNCC(=O)O
How the values were obtained:
[1] = target: T1, human calcitonin receptor (hCTR2) (Homo sapiens, UniProt P30988); experiment: hCTR2 assay: induction of cAMP (AlphaScreen cAMP Assay kit) in COS7 cells expressing hCTR2; type: cell-based
T1 construct: expressed in transfected cells
T1 sequence (P30988 25-474): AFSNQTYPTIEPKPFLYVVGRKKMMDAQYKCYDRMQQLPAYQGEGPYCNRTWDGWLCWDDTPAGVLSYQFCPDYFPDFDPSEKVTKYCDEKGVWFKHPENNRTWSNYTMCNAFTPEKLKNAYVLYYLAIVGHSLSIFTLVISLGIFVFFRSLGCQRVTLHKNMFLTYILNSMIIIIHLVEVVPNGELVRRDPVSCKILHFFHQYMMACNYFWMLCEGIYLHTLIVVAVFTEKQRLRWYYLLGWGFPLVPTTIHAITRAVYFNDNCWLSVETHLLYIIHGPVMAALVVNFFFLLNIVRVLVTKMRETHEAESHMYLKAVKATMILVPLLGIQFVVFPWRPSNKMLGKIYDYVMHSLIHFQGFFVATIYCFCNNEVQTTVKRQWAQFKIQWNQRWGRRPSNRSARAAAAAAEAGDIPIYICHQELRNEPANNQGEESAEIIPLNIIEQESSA
How it was run: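 cAMP induction was measured by AlphaScreen in COS7 cells stably expressing hCTR2 without RAMPs, after 15 min at 37° C with increasing peptide concentrations, 100 µM IBMX and 0.1% casein (Tyrode, pH 7.4). A 4-parameter logistic fit gave EC50 and % efficacy versus pramlintide.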

[2] = Solubility assessment (turbidity absorbance at 325 nm); type: physicochemical; details: stock 2 mg/ml diluted 1:1, ambient temperature (typically 25°C), n=1; for Solubility, Acetate buffer pH 4: 100 mM acetate buffer pH 4.0; for Solubility, Acetate buffer pH 5: 100 mM acetate buffer pH 5.0; for Solubility, Histidine buffer pH 6: 100 mM histidine buffer pH 6.0; for Solubility, Histidine buffer pH 7: 100 mM histidine buffer pH 7.0; for Solubility, Phosphate buffer pH 6: 100 mM phosphate buffer pH 6.0; for Solubility, Phosphate buffer pH 7: 100 mM phosphate buffer pH 7.0; for Solubility, Phosphate buffer pH 7.5: 100 mM phosphate buffer pH7.5
How it was run: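 Turbidity read as absorbance at 325 nm (also 280 nm), single samples at ambient temperature (typically 25°C); ≤ 0.02 units counts as ≥ 1 mg/ml soluble. Samples made by 1:1 dilution of a 2 mg/ml acidic stock into 100 mM acetate, histidine or phosphate buffers, pH 4.0–7.5.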

[3] = target: T2, human amylin receptor 3 (hAMYR3) consisting of hCTR2 co-expressed with human Receptor Activity Modifying Protein 3 (hRAMP3) (Homo sapiens, UniProt O60896+P30988); experiment: hAMYR3 assay: induction of cAMP (AlphaScreen cAMP Assay kit) in COS7 cells expressing hAMYR3; type: cell-based
T2 construct: expressed in transfected cells
T2 sequence (P30988 25-474): T1 sequence (P30988 25-474)
T2 sequence (O60896 24-148 partner): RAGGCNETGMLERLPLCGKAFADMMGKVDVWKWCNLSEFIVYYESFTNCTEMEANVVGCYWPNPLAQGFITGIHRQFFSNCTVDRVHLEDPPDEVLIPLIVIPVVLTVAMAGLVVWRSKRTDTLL
How it was run: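 cAMP accumulation read by AlphaScreen in lysates of RAMP-naive COS7 cells stably transfected with hCTR2 plus hRAMP3. Cells exposed to peptide dilutions for 15 min, 37° C, with 100 µM IBMX; 4PL fitting gave EC50 and efficacy relative to pramlintide.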

[4] = cAMP induction in COS7 cells expressing hCTR2, average of a minimum of 3 determinations, read-out: hCTR2 EC50
[5] = cAMP induction in COS7 cells expressing hAMYR3, average of a minimum of 3 determinations, read-out: hAMY R3 EC50

SMILES | pEC50 [1, 4] | Solubility, Acetate buffer pH 4 [2] | Solubility, Acetate buffer pH 5 [2] | Solubility, Histidine buffer pH 6 [2] | Solubility, Histidine buffer pH 7 [2] | Solubility, Phosphate buffer pH 6 [2] | Solubility, Phosphate buffer pH 7 [2] | Solubility, Phosphate buffer pH 7.5 [2] | pEC50 [3, 5] | pEC50 [1] | pEC50 [3]
CC[C@H](C)[C@@H](C(=O)N[C@@H](CC(C)C)C(=O)N[C@@H](CO)C(=O)N[C@@H](CO)C(=O)N[C@H](C(=O)N[C@@H](CCC(=O)O)C(=O)N[C@H](C(=O)NCC(=O)N[C@@H](CO)C(=O)N[C@@H](CCC(=O)O)C(=O)N[C@H](C(=O)N1CCC[C@H]1C(N)=O)[C@@H](C)O)C(C)C)[C@@H](C)O)N(C)C(=O)[C@H](C)NC(=O)CN(C)C(=O)[C@H](Cc1ccccc1)NC(=O)[C@H](CO)NC(=O)[C@H](CO)NC(=O)[C@H](CO)NC(=O)[C@H](CO)NC(=O)[C@H](CCCNC(=N)N)NC(=O)[C@H](Cc1c[nH]cn1)NC(=O)[C@H](CC(C)C)NC(=O)[C@H](Cc1ccccc1)NC(=O)[C@H](CCC(=O)O)NC(=O)[C@H](C)NC(=O)[C@H](CC(C)C)NC(=O)[C@H](CCCNC(=N)N)NC(=O)[C@H](CC(=O)O)NC(=O)[C@@H](NC(=O)[C@H](C)NC(=O)[C@@H]1CSSC[C@H](NC(=O)[C@H](CCCNC(=N)N)NC(=O)CC[C@H](NC(=O)CCCCCCCCCCCCCCCCCCC(=O)O)C(=O)O)C(=O)N2CCC[C@H]2C(=O)N[C@@H]([C@@H](C)O)C(=O)N[C@@H](C)C(=O)N[C@@H]([C@@H](C)O)C(=O)N1)[C@@H](C)O [Compound 151, [19CD]-isoGlu-RC()PTATC()ATDRLAEFLHRSSSSF-Gly(Me)-A-Ile(Me)-LSSTEVGSETP-NH2] ({C20 diacid-γGlu}-RCPTATCATDRLAEFLHRSSSSF[Sar]A[NMeI]LSSTEVGSETP-NH2; disulfide 2-7) | 10.18 | SS (SS indicates solubility ≥ 1mg/ml) | SS (SS indicates solubility ≥ 1mg/ml) | SS (SS indicates solubility ≥ 1mg/ml) | SS (SS indicates solubility ≥ 1mg/ml) | SS (SS indicates solubility ≥ 1mg/ml) | SS (SS indicates solubility ≥ 1mg/ml) | SS (SS indicates solubility ≥ 1mg/ml) | 9.96 | – | –
CC[C@H](C)[C@@H](C(=O)N[C@@H](CC(C)C)C(=O)N[C@@H](CO)C(=O)N[C@@H](CO)C(=O)N[C@H](C(=O)N[C@@H](CCC(=O)O)C(=O)N[C@H](C(=O)NCC(=O)N[C@@H](CO)C(=O)N[C@@H](CCC(=O)O)C(=O)N[C@H](C(=O)N1CCC[C@H]1C(N)=O)[C@@H](C)O)C(C)C)[C@@H](C)O)N(C)C(=O)[C@H](C)NC(=O)CN(C)C(=O)[C@H](Cc1ccccc1)NC(=O)[C@H](CO)NC(=O)[C@H](CO)NC(=O)[C@H](CO)NC(=O)[C@H](CO)NC(=O)[C@H](CCCNC(=N)N)NC(=O)[C@H](Cc1c[nH]cn1)NC(=O)[C@H](CC(C)C)NC(=O)[C@H](Cc1ccccc1)NC(=O)[C@H](CCC(=O)O)NC(=O)[C@H](C)NC(=O)[C@H](CC(C)C)NC(=O)[C@H](CCCNC(=N)N)NC(=O)[C@@H]1CCCN1C(=O)[C@@H](NC(=O)[C@H](C)NC(=O)[C@@H]1CSSC[C@H](NC(=O)[C@H](CCCNC(=N)N)NC(=O)CC[C@H](NC(=O)CCCCCCCCCCCCCCCCCCC(=O)O)C(=O)O)C(=O)N2CCC[C@H]2C(=O)N[C@@H]([C@@H](C)O)C(=O)N[C@@H](C)C(=O)N[C@@H]([C@@H](C)O)C(=O)N1)[C@@H](C)O [Compound 143, [19CD]-isoGlu-RC()PTATC()ATPRLAEFLHRSSSSF-Gly(Me)-A-Ile(Me)-LSSTEVGSETP-NH2] ({C20 diacid-γGlu}-RCPTATCATPRLAEFLHRSSSSF[Sar]A[NMeI]LSSTEVGSETP-NH2; disulfide 2-7) | 9.59 | SS (SS indicates solubility ≥ 1mg/ml) | SS (SS indicates solubility ≥ 1mg/ml) | SS (SS indicates solubility ≥ 1mg/ml) | SS (SS indicates solubility ≥ 1mg/ml) | SS (SS indicates solubility ≥ 1mg/ml) | SS (SS indicates solubility ≥ 1mg/ml) | SS (SS indicates solubility ≥ 1mg/ml) | 9.36 | – | –
CC[C@H](C)[C@@H](C(=O)N[C@@H](CC(C)C)C(=O)N[C@@H](CO)C(=O)N[C@@H](CO)C(=O)N[C@H](C(=O)N[C@@H](CC(N)=O)C(=O)N[C@H](C(=O)NCC(=O)N[C@@H](CO)C(=O)N[C@@H](CC(N)=O)C(=O)N[C@H](C(=O)N1C[C@H](Cc2ccccc2)C[C@H]1C(N)=O)[C@@H](C)O)C(C)C)[C@@H](C)O)N(C)C(=O)[C@H](C)NC(=O)CN(C)C(=O)[C@H](Cc1ccccc1)NC(=O)[C@H](CC(N)=O)NC(=O)[C@H](CC(N)=O)NC(=O)[C@H](CO)NC(=O)[C@H](CO)NC(=O)[C@H](CCCNC(=N)N)NC(=O)[C@H](Cc1c[nH]cn1)NC(=O)[C@H](CC(C)C)NC(=O)[C@H](Cc1ccccc1)NC(=O)[C@H](CCC(=O)O)NC(=O)[C@H](C)NC(=O)[C@H](CC(C)C)NC(=O)[C@H](CCCNC(=N)N)NC(=O)[C@H](CCC(N)=O)NC(=O)[C@@H](NC(=O)[C@H](C)NC(=O)[C@@H]1CSSC[C@H](NC(=O)[C@H](CCCNC(=N)N)NC(=O)CC[C@H](NC(=O)CCCCCCCCCCCCCCCCCCC(=O)O)C(=O)O)C(=O)N[C@@H](CC(N)=O)C(=O)N[C@@H]([C@@H](C)O)C(=O)N[C@@H](C)C(=O)N[C@@H]([C@@H](C)O)C(=O)N1)[C@@H](C)O [Compound 114, [19CD]-isoGlu-RC()NTATC()ATQRLAEFLHRSSNNF-Gly(Me)-A-Ile(Me)-LSSTNVGSNT-Bep-NH2] ({C20 diacid-γGlu}-RCNTATCATQRLAEFLHRSSNNF[Sar]A[NMeI]LSSTNVGSNT[Pro(4R-Bn)]-NH2; disulfide 2-7) | – | SS (SS indicates solubility ≥ 1mg/ml) | SS (SS indicates solubility ≥ 1mg/ml) | SS (SS indicates solubility ≥ 1mg/ml) | II (II indicates solubility ≤ 1 mg/ml) | II (II indicates solubility ≤ 1 mg/ml) | II (II indicates solubility ≤ 1 mg/ml) | II (II indicates solubility ≤ 1 mg/ml) | – | 9.68 | 9.74
